According to PubChem BioAssay AID179 (DTP/NCI, 2004):
Active and inactive are the calls of the source.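 How the source made its calls: active means compounds giving half or more protection of infected cells from virus-caused growth loss, again on retest; inactive means the rest.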 Where a SMILES comes first, the peptide text is derived from it. The star is where a group is joined. Cbz = O=C(OCc1ccccc1)*

System: CEM cells HIV-1 protection, formazan growth assay
Experiment: NCI AIDS Antiviral Assay
Conditions: for IC50: measured here: growth of uninfected CEM cells
How it was run: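 Category rules: moderately active means at least 50% protection on retest, and confirmed active means 100% protection reproducibly. The underlying data came from a formazan growth assay in HIV-1-infected CEM cells.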

CCN(CCN1C(=O)C2CCCCC2C1=O)c1ccc(N=O)c(C)c1 (stereo not drawn)
EC50: > 200 µM | IC50: 1.78 µM

Cc1noc(NS(=O)(=O)c2ccc(N)cc2)c1C
EC50: > 200 µM | IC50: > 200 µM

CCCCOCCOC(=O)C1C(C=C(C)C)C1(C)C (stereo not drawn)
EC50: > 200 µM | IC50: > 200 µM

CCc1cccc(C)c1NC(=O)CCc1nnc2s/c(=C\c3cccc4ccccc34)c(=O)n12
EC50: > 200 µM | IC50: 191 µM

N#Cc1c(O)cc(=O)n2c1[nH]c1ccccc12
EC50: > 200 µM | IC50: 174 µM

CCN(CC)CCCN1CCc2c([nH]c3ccccc23)C1c1cccnc1 (stereo not drawn)
EC50: > 186 µM | IC50: > 186 µM

COc1ccccc1NC(=O)C(=O)C1C(=O)Nc2ccccc2S1=O (stereo not drawn)
outcome: inactive

CC1OC(=O)C2=C1C(=O)CC(C)(C)O2 (stereo not drawn)
EC50: > 182 µM | IC50: 170 µM

CCOC(=O)c1nnsc1NC(=O)NCCCCCCn1c(=O)n(CCCCCCNC(=O)Nc2snnc2C(=O)OCC)c(=O)n(CCCCCCNC(=O)Nc2snnc2C(=O)OCC)c1=O
EC50: > 200 µM | IC50: > 200 µM

O=C(c1cc(Cl)c(O)c(C(=O)O)c1)c1cc(Cl)c(O)c(C(=O)O)c1
EC50: > 61.7 µM | IC50: 56.2 µM

O=[N+]([O-])C(/C=C(\Cl)[N+](=O)[O-])=C1Nc2ccccc2N1
EC50: > 200 µM | IC50: 35.5 µM

COC(=O)c1csc(-c2csc(CCNC(=O)OC(C)(C)C)n2)n1
EC50: > 355 µM | IC50: 60.3 µM

CCOC(=O)NC(=O)c1cn(CCCCCOC(=O)NCCCCCCNC(=O)OCCCCCn2cc(C(=O)NC(=O)OCC)c(=O)[nH]c2=O)c(=O)[nH]c1=O
outcome: inactive

O=C(c1cccs1)N(C(=S)N1CCN(c2ccccc2)CC1)C1CCCCC1
EC50: > 12.6 µM | IC50: > 12.6 µM

Brc1ccc(-c2cc3c(cc2C2SCCS2)OCO3)cc1
EC50: > 67.6 µM | IC50: > 67.6 µM

Cc1nnc(N=Nc2c(O)[nH]c3c(Cl)cc(Cl)cc23)n1N
EC50: > 16.6 µM | IC50: > 16.6 µM

O=C(O)c1ccccc1N=NNc1ccc(/C=C/c2ccc(N=NNc3ccccc3C(=O)O)cc2S(=O)(=O)O)c(S(=O)(=O)O)c1
EC50: 6.31 µM | IC50: 389 µM

Cc1c(Cl)ccc2c(=O)c3cccc(CC(=O)O)c3oc12
EC50: > 200 µM | IC50: 79.4 µM

C=C1CC(Cn2cc(C)c(=O)[nH]c2=O)(c2ccc(Cl)cc2)OC1=O (stereo not drawn)
EC50: > 20 µM | IC50: 0.617 µM

CN(C)CCCNC(=O)CCNC(=O)c1cc(NC(=O)c2cc(NC(=O)c3cc(NC(=O)CCCNC(=O)c4cc(NC(=O)c5cc(NC(=O)c6nccn6C)cn5C)cn4C)cn3C)cn2C)cn1C
outcome: inactive

CN1C(=O)N(C)C2(O)c3ccccc3C(=O)C12O (stereo not drawn)
EC50: > 1000 µM | IC50: > 1000 µM

Cc1ccc(C)c(N2C(=O)C(=O)C(c3nc4ccccc4s3)C(=O)C2=O)c1
outcome: inactive

COc1cc(C(C2=C(O)c3ccccc3C(=O)C2=O)C2=C(O)c3ccccc3C(=O)C2=O)cc(OC)c1OC
EC50: > 200 µM | IC50: 72.4 µM

Cc1ccc(C2CC(c3ccco3)=NN2c2ccccc2)o1 (stereo not drawn)
EC50: > 17.8 µM | IC50: > 17.8 µM

O=[N+]([O-])c1ccc(N=Cc2ccccc2O)cc1
EC50: > 200 µM | IC50: 8.91 µM

Cc1ccc2c(c1)[nH]c(=S)n2C=C(C(N)=O)C(N)=O
EC50: > 200 µM | IC50: > 200 µM

CC(NC(=O)C1CCCN1C(=O)OC(C)(C)C)C(=O)OCc1ccccc1 (stereo not drawn)
EC50: > 95.5 µM | IC50: 60.3 µM

CCOC(=O)NC(N(C)C(C(C)C)P(=O)(OCC)OCC)(C(F)(F)F)C(F)(F)F (stereo not drawn)
EC50: > 200 µM | IC50: > 200 µM

COc1ccc(Cn2nc(OCc3ccccc3)c3cc([N+](=O)[O-])ccc32)cc1
EC50: > 200 µM | IC50: 25.1 µM

Nc1nc2c(ccn2[C@H]2C=C[C@@H](CO)C2)c(=O)[nH]1
EC50: > 275 µM | IC50: > 275 µM

Cc1cc2c(c(C(=O)O)c1C)-c1cccc(F)c1C2=O
outcome: inactive

CCOC(=O)CCC(NC(=O)OCc1ccccc1)C(=O)NC(CC(=O)OC)C(=O)NC(CC(=O)OC)C(=O)NC(CCC(=O)OCC)C(=O)OCC (stereo not drawn) (Cbz-E(OEt)D(OMe)D(OMe)E(OEt)-OEt; configuration not given here)
EC50: > 50.1 µM | IC50: > 50.1 µM

CCc1n[nH]c(=O)n1N
outcome: inactive

O=C1CCCC/C1=C(\Br)I
outcome: inactive

COc1ccc(C2S/C(=C\c3cc(OC)c(OC)c(OC)c3)C(=O)N2NC(=O)Cc2ccccc2)cc1 (stereo not drawn)
EC50: > 36.3 µM | IC50: > 36.3 µM

O=C1/C(=N\O)C(c2ccccc2)Oc2ccccc21 (stereo not drawn)
EC50: 20.9 µM | IC50: 38 µM

Nc1ccc(OCC(O)N2C(=O)c3ccccc3C2=O)cc1 (stereo not drawn)
EC50: > 200 µM | IC50: > 200 µM

COc1ccc(OC)c(NC(=O)CCC/C(CC(=O)c2ccc(O)c(OC)c2)=N\NC(=O)C[N+](C)(C)C)c1
EC50: > 6.61 µM | IC50: > 6.61 µM

COc1ccc2c(c1)C1(C=N2)CCN(C(C)=O)CC1
EC50: > 138 µM | IC50: > 138 µM

O=C1/C(=C/c2ccccc2)CNC/C1=C\c1ccccc1
outcome: inactive

Cc1ccc(NC(=O)CC/C(CC(=O)C(C)(C)C)=N\NC(=O)C[n+]2ccccc2)cc1C
EC50: > 75.9 µM | IC50: > 75.9 µM

FC(F)(F)c1nc2cc(SSc3cc4nc(C(F)(F)F)[nH]c4cc3Cl)c(Cl)cc2[nH]1
EC50: > 200 µM | IC50: 7.41 µM

C/C(=N\O)[C@H]1CC[C@H]2[C@@H]3CC[C@@H]4C/C(=N/O)CC[C@]4(C)[C@H]3[C@@](C)(O)C[C@]12C
EC50: > 200 µM | IC50: 26.9 µM
